Test results from patent US8119616B2, “Formulation of quinazoline based EGFR inhibitors containing a zinc binding moiety” (Curis, Inc., priority 2007, dated 2012).

Assays:
Prostate_PC3 = test: Cell proliferation assay (ATPlite); format: cell-based; details: 72 hours, 0.5% fetal bovine serum
Procedure: (§1) A representative number of compounds were assayed against several different cell lines using the cell proliferation assay:
(§2) Cell Proliferation Assay:
(§3) Cancer cell lines were plated at 5,000 to 10,000 per well in 96-well flatted bottomed plates with various concentration of compounds. The cells were incubated with compounds for 72 hours in the presence of 0.5% of fetal bovine serum. Growth inhibition was accessed by adenosine triphosphate (ATP) content assay using Perkin Elmer ATPlite kit. ATPlite is an ATP monitoring system based on firefly luciferase. Briefly, 25 μl of mammalian cell lysis solution was added to 50 μl of phenol red-free culture medium per well to lyse the cells and stabilize the ATP. 25 μl of substrate solution was then added to the well and subsequently the luminescence was measured.

Pancreas_Capan1 = test: Cell proliferation assay (ATPlite); format: cell-based; details: 72 hours, 0.5% fetal bovine serum
Procedure: as §1, §2, §3

Pancreas_BxPC3 = test: Cell proliferation assay (ATPlite); format: cell-based; details: 72 hours, 0.5% fetal bovine serum
Procedure: as §1, §2, §3

Lung_H460 = test: Cell proliferation assay (ATPlite); format: cell-based; details: 72 hours, 0.5% fetal bovine serum
Procedure: as §1, §2, §3

Lung_H2122 = test: Cell proliferation assay (ATPlite); format: cell-based; details: 72 hours, 0.5% fetal bovine serum
Procedure: as §1, §2, §3

Lung_H358 = test: Cell proliferation assay (ATPlite); format: cell-based; details: 72 hours, 0.5% fetal bovine serum
Procedure: as §1, §2, §3

Lung_H1975 = test: Cell proliferation assay (ATPlite); format: cell-based; details: 72 hours, 0.5% fetal bovine serum
Procedure: as §1, §2, §3

HDAC = system: T1, HDAC; test: HDAC fluorimetric enzyme assay (HeLa nuclear extract); format: biochemical; details: FIG. 1
T1 construct: rows headed: HDAC IC50
Procedure: HDAC inhibitors were screened using an HDAC fluorimetric assay kit (AK-500, Biomol, Plymouth Meeting, Pa.). […] Fluorescence was measured on a WALLAC Victor 2 plate reader and reported as relative fluorescence units (RFU). Data were plotted using GraphPad Prism (v4.0a) and IC50's calculated using a sigmoidal dose response curve fitting algorithm. Each assay was setup as follows: Defrosted all kit components and kept on ice until use. […] Prepared dilutions of Trichostatin A (TSA, positive control) and tested compounds in assay buffer (5× of final concentration). Diluted Fluor de Lys™ Substrate in assay buffer to 100 uM (50 fold=2× final). Diluted Fluor de Lys™ developer concentrate 20-fold (e.g. 50 μl plus 950 μl Assay Buffer) in cold assay buffer. Second, diluted the 0.2 mM Trichostatin A 100-fold in the 1× Developer (e.g. 10 μl in 1 ml; final Trichostatin A concentration in the 1× Developer=2 μM; final concentration after addition to HDAC/Substrate reaction=1 μM). Added Assay buffer, diluted trichostatin A or test inhibitor to appropriate wells of the microtiter plate. Added diluted HeLa extract or other HDAC sample to all wells except for negative controls.

human EGFR = target: T2, human EGFR (Homo sapiens, UniProt P00533); test: HTScan EGF Receptor Kinase assay; format: biochemical
T2 construct: human EGFR (His672-Ala1210); purchased Cell Signaling Technologies; host or cells: baculovirus expression system
T2 sequence (P00533 672-1210): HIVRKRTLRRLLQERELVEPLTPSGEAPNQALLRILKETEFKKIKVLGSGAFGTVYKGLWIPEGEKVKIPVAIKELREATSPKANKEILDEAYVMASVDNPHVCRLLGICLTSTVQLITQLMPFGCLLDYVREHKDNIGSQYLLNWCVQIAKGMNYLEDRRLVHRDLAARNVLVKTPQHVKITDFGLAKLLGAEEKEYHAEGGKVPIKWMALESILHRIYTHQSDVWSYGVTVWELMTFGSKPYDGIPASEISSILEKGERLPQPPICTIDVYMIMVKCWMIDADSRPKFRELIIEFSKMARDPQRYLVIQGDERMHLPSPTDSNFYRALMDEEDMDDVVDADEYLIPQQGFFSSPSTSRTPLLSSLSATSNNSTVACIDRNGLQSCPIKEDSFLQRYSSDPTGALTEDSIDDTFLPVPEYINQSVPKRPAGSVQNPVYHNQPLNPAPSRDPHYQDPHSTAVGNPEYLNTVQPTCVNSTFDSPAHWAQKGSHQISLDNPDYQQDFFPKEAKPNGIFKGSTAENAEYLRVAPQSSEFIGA
Procedure: The ability of compounds to inhibit receptor kinase (EGFR) activity was assayed using HTScan™ EGF Receptor Kinase Assay Kits (Cell Signaling Technologies, Danvers, Mass.). […] The protein was purified by one-step affinity chromatography using glutathione-agarose.
Immediately transfer enzyme from −80° C. to ice. Allowed enzyme to thaw on ice. […] Returned immediately to ice. […] Incubated reaction plate at room temperature for 30 minutes. […] Added 100 μl/well primary antibody. Incubated at room temperature for 60 minutes. […] Added 100 μl/well diluted antibody. Incubated at room temperature for 30 minutes. […] Incubated at room temperature for 5 minutes.

Pancreas_PANC1 = test: Cell proliferation assay (ATPlite); format: cell-based; details: 72 hours, 0.5% fetal bovine serum
Procedure: as §1, §2, §3

Pancreas_CFPAC = test: Cell proliferation assay (ATPlite); format: cell-based; details: 72 hours, 0.5% fetal bovine serum
Procedure: as §1, §2, §3

Pancreas_HPAC = test: Cell proliferation assay (ATPlite); format: cell-based; details: 72 hours, 0.5% fetal bovine serum
Procedure: as §1, §2, §3

Pancreas_MiaPaCa2 = test: Cell proliferation assay (ATPlite); format: cell-based; details: 72 hours, 0.5% fetal bovine serum
Procedure: as §1, §2, §3

Colon_HCT116 = test: Cell proliferation assay (ATPlite); format: cell-based; details: 72 hours, 0.5% fetal bovine serum
Procedure: as §1, §2, §3

Lung_H1703 = test: Cell proliferation assay (ATPlite); format: cell-based; details: 72 hours, 0.5% fetal bovine serum
Procedure: as §1, §2, §3

Lung_HCC827 = test: Cell proliferation assay (ATPlite); format: cell-based; details: 72 hours, 0.5% fetal bovine serum
Procedure: Cancer cell lines were plated at 5,000 to 10,000 per well in 96-well flatted bottomed plates with various concentration of compounds. […] Growth inhibition was accessed by adenosine triphosphate (ATP) content assay using Perkin Elmer ATPlite kit. […] Briefly, 25 μl of mammalian cell lysis solution was added to 50 μl of phenol red-free culture medium per well to lyse the cells and stabilize the ATP. 25 μl of substrate solution was then added to the well and subsequently the luminescence was measured.

A549 NSCLC = A549 NSCLC Xenograft model; format: in vivo, mice; details: compared with vehicle or control
Procedure: A representative protocol for the in vivo experiment is as followed:
1-10×10^6 human cancer cells were implanted subcutaneously to the athymic (nu/nu) mice. When the tumors reached about 100 mm^3 in volume, the mice were treated with the compound by tail vein infusion. Routinely 5 groups (8-12 mice per group) are needed for a typical efficacy study, including one negative control, one positive control, and three testing groups for 3 dose levels of the same compound. Usually a 7-7-5 (on-off-on) regimen was used for one typical study. The tumor size was measured with an electronic caliper and body weight measured with a scale twice weekly. The tumors were removed from euthanized mice at the end of the study. One half of each tumor was frozen in dry ice and stored at −80° C. for PK or Western blot analysis. The other half was fixed with formalin. The fixed tissues were processed, embedded in paraffin and sectioned for immunohistochemistry staining. Protocol for Radioisotope assay for HER2

Dilution study with D5W = format: physicochemical; details: 30% CAPTISOL solution

Row | Molecule | IC50 (Pancreas_BxPC3) [nM] | IC50 (Pancreas_PANC1) [nM] | IC50 (Pancreas_CFPAC) [nM] | IC50 (Pancreas_HPAC) [nM] | IC50 (Pancreas_MiaPaCa2) [nM] | other results
1 | COc1cc2ncnc(Nc3ccc(F)c(Cl)c3)c2cc1OCCCCCCC(=O)NO [Compound 6, 7-(4-(3-Chloro-4-fluorophenylamino)-7-methoxyquinazolin-6-yloxy)-N-hydroxyheptanamide] | 100 to 1000 |  |  |  |  | IC50 (Prostate_PC3): 100 to 1000 nM; IC50 (Pancreas_Capan1): 1000 to 10000 nM; IC50 (Lung_H460): 100 to 1000 nM; IC50 (Lung_H2122): 100 to 1000 nM; IC50 (Lung_H358): 100 to 1000 nM; IC50 (Lung_H1975): 100 to 1000 nM; activity in HDAC enzyme assay compared with erlotinib and SAHA (HDAC): more active than erlotinib and SAHA; activity in EFGR enzyme assay compared with erlotinib and SAHA (human EGFR; FIG. 1): more active than erlotinib and SAHA
2 | O=C(CCCCCCOc1ccc2ncnc(Nc3ccc(F)c(Cl)c3)c2c1)NO [Compound 18, 7-(4-(3-chloro-4-fluorophenylamino)quinazolin-6-yloxy)-N-hydroxyheptanamide] |  | 100 to 1000 | 100 to 1000 | 1000 to 10000 | 100 to 1000 | IC50 (Colon_HCT116): 100 to 1000 nM
3 | COc1cc2ncnc(Nc3ccc(F)c(Cl)c3)c2cc1NC(=O)CCCCCCC(=O)NO [Compound 40, N^1-(4-(3-chloro-4-fluorophenylamino)-7-methoxyquinazolin-6-yl)-N^8-hydroxyoctanediamide] |  | 1000 to 10000 | 1000 to 10000 | 1000 to 10000 | 1000 to 10000 | 
4 | C#Cc1cccc(Nc2ncnc3cc(OC)c(NC(=O)CCCCCCC(=O)NO)cc23)c1 [Compound 44, N^1-(4-(3-ethynylphenylamino)-7-methoxyquinazolin-6-yl)-N^8-hydroxyoctanediamide] | 1000 to 10000 |  |  |  |  | IC50 (Pancreas_Capan1): 1000 to 10000 nM; IC50 (Lung_H1703): 1000 to 10000 nM; IC50 (Lung_H460): 1000 to 10000 nM; IC50 (Lung_H2122): 1000 to 10000 nM; IC50 (Lung_H358): 1000 to 10000 nM; IC50 (Lung_H1975): 1000 to 10000 nM; IC50 (Lung_HCC827): 100 to 1000 nM
5 | COc1cc2ncnc(Nc3ccc(F)c(Cl)c3)c2cc1OCCOc1ccc(/C=C/C(=O)NO)cc1 [Compound 66, (E)-3-(4-(2-(4-(3-chloro-4-fluorophenylamino)-7-methoxyquinazolin-6-yloxy)ethoxy)phenyl)-N-hydroxyacrylamide] | 1000 to 10000 | 1000 to 10000 |  | 1000 to 10000 | 1000 to 10000 | 
6 | COCCOc1cc2ncnc(Nc3ccc(F)c(Cl)c3)c2cc1NC(=O)CCCCCCC(=O)NO [Compound 70, N^1-(4-(3-chloro-4-fluorophenylamino)-7-(2-methoxyethoxy)quinazolin-6-yl)-N^8-hydroxyoctanediamide] |  | 1000 to 10000 | 1000 to 10000 | > 10000 | 1000 to 10000 | IC50 (human EGFR): < 100 nM
7 | COc1cc2ncnc(N[C@H](C)c3ccccc3)c2cc1OCCCCCC(=O)NO [Compound 77, (R)—N-hydroxy-6-(7-methoxy-4-(1-phenylethylamino)quinazolin-6-yloxy)-hexanamide] |  | > 10000 | 1000 to 10000 | > 10000 | 100 to 1000 | 
8 | COc1cc2ncnc(N[C@H](C)c3ccccc3)c2cc1OCCCCCCC(=O)NO [Compound 79, (R)—N-hydroxy-7-(7-methoxy-4-(1-phenylethylamino)quinazolin-6-yloxy)heptanamide] |  | 1000 to 10000 | 1000 to 10000 | > 10000 | 1000 to 10000 | 
9 | COc1cc2ncnc(NCc3ccccc3)c2cc1OCCCCCCC(=O)NO [Compound 85, 7-(4-(Benzylamino)-7-methoxyquinazolin-6-yloxy)-N-hydroxyheptanamide] | 100 to 1000 | 1000 to 10000 |  | 1000 to 10000 | 1000 to 10000 | IC50 (Colon_HCT116): 100 to 1000 nM
10 | COc1cc2ncnc(Nc3ccc(F)c(Cl)c3)c2cc1OCCOc1ccc(C(=O)NO)cc1 [Compound 92, 4-(2-(4-(3-chloro-4-fluorophenylamino)-7-methoxyquinazolin-6-yloxy)ethoxy)-N-hydroxybenzamide] |  |  |  |  |  | IC50 (human EGFR): < 100 nM
11 | C#Cc1cccc(Nc2ncnc3cc(OCCOC)c(OCCOC)cc23)c1 [Erlotinib, reference compound] |  |  |  |  |  | effect on tumor size / tumor growth (A549 NSCLC): did not significantly affect tumor size
12 | Tartaric Acid |  |  |  |  |  | Dilution with D5W (Dilution study with D5W): >50x
